Molecules are shown by their SMILES. pIC50: −log10 of the molar value.

In general, pIC50 refers to −log10 of the IC50, conventionally taken in molar units.

Assay [1] has as its target T1, protein kinase (PKA), catalytic subunit (Homo sapiens, UniProt P17612).
T1 construct: purchased Sigma Chemical Company, St. Louis, Mo
As to the kind of experiment: cAMP-Dependent Protein Kinase (PKA) Assay. Format: biochemical. The settings on record: free base. As for the experimental part:
Compound found to be inhibitors of protein kinase C are tested for inhibitory activity against protein kinase (PKA). This enzyme, like protein kinase C, plays an important role in cell-cell communication and is activated by a second messenger, cAMP. Secondary screening against PKA is useful for ascertaining the selectivity of the compounds of the invention. The catalytic subunit of PKA (Sigma Chemical Company, St. Louis, Mo.) is mixed with buffer before addition of the inhibitor in dimethylsulfoxide (DMSO). The assay is started by the addition of 32P-ATP and the reaction is allowed to proceed for 10 min before stopping with 25% trichloroacetic acid (TCA) and 1.0 mg/ml bovine serum albumin (BSA). The phosphorylated protein is isolated by filtration and the radioactivity is counted in a beta scintillation counter.

The test system of assay [2] is MCF-7 human breast tumor cell line. Briefly: Human Tumor Cell Growth Inhibition, MCF-7. Format: cell-based. The settings on record: Homo sapiens, MCF7; 3H-thymidine incorporation; value outside parentheses (not salt). As for the experimental part: MCF-7 a human breast tumor cell line and MCF-7/ADR an adriamycin resistant line of MCF-7 cells were obtained from the National Cancer Institute, Frederick, Md. […] Human tumor cells are trypsinized (0.05% trypsin, GIBCO), counted with a hemacytometer and seeded at a concentration of 10,000 cells/well in a 96 well microtiter plate. After allowing cells to attach to the surface overnight, the culture medium is aspirated and replaced with 100 μl of fresh medium. Test agents are diluted to determine dose response at 2× final concentration and added in quadruplicate at 100 μl/well to bring the total volume of each well to 200 μl. The microtiter plate is then incubated at 37° C. 5% CO2 overnight (18-24 hrs) before ^3 H-thymidine is added at a concentration of 0.5 μCi/well in 50 μl culture medium. The plate is incubated again for 4 hrs under the same conditions as above. Supernatant is then aspirated and 50 μl trypsin (0.05%, GIBCO) is added to each well. Cells are checked microscopically to determine detachment from surfaces, and plates are then harvested with a cell harvester (PHD, Cambridge Technology, Inc.) Filter papers corresponding to wells are placed in scintillation vials and counted to determine the amount of ^3 H-thymidine incorporated by the cells. Test agent response is compared to a positive control of cell wells with culture media only to determine the IC50. IC50 is the concentration of test compound required to inhibit fifty per cent of the incorporation of ^3 H-thymidine into proliferating cells not exposed to test agent. Uptake of ^3 H-thymidine is a standard test for measuring the metabolism of cells. Cells which are actively proliferating take up ^3 H-thymidine, whereas cells that are not proliferating take up ^3 H-thymidine at much slower rates or not at all. Test agents that inhibit the uptake of ^3 H-thymidine thus slow the growth of cells.
A general note: Dividing cells build labelled thymidine or BrdU into new DNA.

The target in a further assay is protein kinase C (PKC). As to the kind of experiment: Protein Kinase C Inhibition. The class given is biochemical, rat. The method, then:
The protein kinase C (PKC) assay is designed to duplicate the in vivo conditions required for protein kinase C function. Therefore, pH, salt and cofactor concentrations are similar to physiologic levels. Histone H1 (lysine rich) is used in the assay as the phosphorylation acceptor protein because it is readily available and serves as a good substrate for protein kinase C. The enzyme is prepared from rat brain and is purified to apparent homogeneity as determined by a single band on silver stained SDS-polyacrylamide. Studies on the mechanism of regulation of protein kinase C by phospholipids, DAG and Ca^+2 have been hampered by the physical properties of the lipid cofactors. In the screening assay, phosphatidylserine (PS) and DAG are co-sonicated to form unilamellar and multilamellar vesicles. The concentration of lipids in the assay are suboptimal to maximize the detection potential of the assay for inhibitors. […] The assay is started with the addition of enzyme and stopped after 10 min by the addition of 25% trichloroacetic acid (TCA) and 1.0 mg/ml bovine serum albumin (BSA). The radioactive histone product is retained and washed on glass fiber filters that allow the unreacted ^32 P-ATP to pass through. The amount of phosphorylation is determined by the radioactivity measured in a scintillation counter. Controls are included in every assay to measure background activity in the absence of enzyme, activity in the absence of lipids and the maximum enzyme activity with saturating levels of the activator lipids.
Both the free base and the HCl salt were tested.

Assay [3] deals with MCF-7/ADR adriamycin resistant line of MCF-7 cells. As to the kind of experiment: Human Tumor Cell Growth Inhibition, MCF-7/ADR. Format: cell-based. The settings on record: NCI/ADR-RES, 3H-thymidine incorporation, value without parentheses (not salt). The source says:
MCF-7 a human breast tumor cell line and MCF-7/ADR an adriamycin resistant line of MCF-7 cells were obtained from the National Cancer Institute, Frederick, Md. CEM cells (ATCC accession number CCL 119) were obtained from the American Type Culture Collection, Rockville, Md. Human tumor cells are trypsinized (0.05% trypsin, GIBCO), counted with a hemacytometer and seeded at a concentration of 10,000 cells/well in a 96 well microtiter plate. After allowing cells to attach to the surface overnight, the culture medium is aspirated and replaced with 100 μl of fresh medium. Test agents are diluted to determine dose response at 2× final concentration and added in quadruplicate at 100 μl/well to bring the total volume of each well to 200 μl. The microtiter plate is then incubated at 37° C. 5% CO2 overnight (18-24 hrs) before ^3 H-thymidine is added at a concentration of 0.5 μCi/well in 50 μl culture medium. The plate is incubated again for 4 hrs under the same conditions as above. Supernatant is then aspirated and 50 μl trypsin (0.05%, GIBCO) is added to each well. Cells are checked microscopically to determine detachment from surfaces, and plates are then harvested with a cell harvester (PHD, Cambridge Technology, Inc.) Filter papers corresponding to wells are placed in scintillation vials and counted to determine the amount of ^3 H-thymidine incorporated by the cells. […]

Assay [4] concerns PMA-stimulated neutrophils. Briefly: Neutrophil Superoxide Anion (O2^-) Release Assay. Format: cell-based, human. The settings on record: Homo sapiens, Neutrophil; PMA-stimulated; value outside parentheses (not salt); read-out: Neutrophil Superoxide Release IC50. The method, then:
Neutrophils are isolated form whole blood collected from human volunteers. All reagent materials are obtained from Sigma Chemical Company with the exception of isotonic saline (Travenol Laboratories, Inc., Deerfield, Ill.) and lymphocyte separation medium (Organon Teknika, Durham, N.C.).
Whole blood is drawn and mixed with sodium heparin (final conc. 10 units/ml) to prevent clotting. An equal volume of dextran (3.0%) in isotonic saline is added, mixed, and allowed to settle for 30 min to bind red blood cells (RBC). Supernatant is removed, underlayered with lymphocyte separation medium and centrifuged for 40 min at 400 xg in a centrifuge (Beckman GPR, Norcross, Ga). The pellet is alternately resuspended in 0.2% and 1.6% NaCl to lyse RBCs before washing with Hank's Balanced Salt Solution (HBSS). The washed pellet is resuspended in 10 mL HBSS and placed on ice before counting on a hemacytometer.
The neutrophil cell concentration is adjusted to 2×10^6 cells/ml with HBSS before adding 0.8 mL cells to 12×75 mm polypropylene test tubes (Fisher Scientific). Test agents are diluted to determine dose response and added at 10× final concentration at a volume of 0.1 mL/tube in duplicate. Then 10× concentrations of cytochrome C (15 mg/ml) with catalase (3000 units/ml) either alone or containing 25 ng/ml phorbol 12-myristate 13-acetate (PMA) are added at a volume of 0.1 mL/tube and incubated at 37° C. for 30 min before stopping the reaction by placing tubes on ice. Tubes are then centrifuged at 900 xg for 10 min, 0.5 mL supernatant is removed and added to 0.5 mL H2 O in a microcuvette. Optical density (OD) of cytochrome c is read in a spectrophotometer (Shimadzu) at 550 nm. The ΔOD of cytochrome c is obtained between PMA-stimulated and non-stimulated tubes, and the dose responses of the test agents are compared to the positive controls (which contain HBSS in place of test agents). PMA stimulates O2^- production which reduces cytochrome c. Reducing cytochrome c increases its absorbance, and the change in OD of cytochrome c is proportional to the amount of O2^- produced by PMA stimulation. Inhibition of the O2^- burst by test compounds of the invention is seen as a reduction in the change in optical density. Inhibition is expressed as IC50 μM and is the amount of test compound that will inhibit fifty percent of the PMA-stimulated respiratory outburst, i.e. O2^- production.

Assay [5] concerns NHEK cells (proliferating keratinocytes). Briefly: Human Keratinocyte Inhibition. The settings on record: 3H-thymidine incorporation, value outside parentheses (not salt), read-out: NHEK IC50. Format: cell-based. As for the experimental part: Proliferating keratinocytes (NHEK cells purchased from Clonetics, Inc., San Diego, Calif.) in second passage were grown in Keratinocyte Growth Medium (KGM) (Clonetics, Inc.) Cells are trypsinized (0.025% trypsin, Clonetics), counted with a hemacytometer (Scientific Products), and seeded at a concentration of 2,500 cells/well in a 96 well microtiter plate. After allowing cells to attach to the surface overnight, the culture medium is aspirated and replaced with 100 μl of fresh KGM. […] IC50 is the concentration of test compound required to inhibit fifty percent of the incorporation of ^3 H-thymidine into proliferating cells not exposed to test agent.

Take `CCCCCCCCCCCCCCCC(=O)NCCCN1CCCCC1C` (stereo not drawn) [Compound 11, 2-Methyl-l-[3-(N-hexadecanoyl)aminopropyl]piperidine]: the pIC50 is below 3.66 in assay [1]; 5.39 in assay [2]; 4.18 on protein kinase C (PKC) (HCl salt); 3.89 at protein kinase C (PKC) (free base); 5.59 in assay [3]; 5.74 in assay [4].
`CCCCCCCCCCCCCCCC(=O)N(C)CCC[N+]1(C)CCOCC1` [Compound 16, 4-[N-hexadecanoyl-N-methyl-4-(3-aminopropyl)]-4-methylmorpholimium iodide]: the pIC50 in assay [1] was 3.88; in assay [2] it was 4.71; in assay [5], 5.85; at protein kinase C (PKC) (free base) it was 4.66; in assay [3], below 4.60.

For the origin of these results see patent US5270310A, “N-aminoalkyl amide inhibitors of protein kinase C” (Sphinx Pharmaceuticals Corporation, priority 1991, dated 1993).
